{
  "source": "patent US9714244B2",
  "about": "“Substituted pyrido[4,3-d]pyrimidines as Wee-1 inhibitors” (ALMAC DISCOVERY LIMITED, priority 2013, dated 2017)",
  "assay_type_in_all_cases": "biochemical",
  "conditions_in_all_cases": "300-350 nM",
  "key": {"[1]": {"target": "PAK4 (Homo sapiens (Human), UniProt O96013)", "sequence (O96013 whole entry)": "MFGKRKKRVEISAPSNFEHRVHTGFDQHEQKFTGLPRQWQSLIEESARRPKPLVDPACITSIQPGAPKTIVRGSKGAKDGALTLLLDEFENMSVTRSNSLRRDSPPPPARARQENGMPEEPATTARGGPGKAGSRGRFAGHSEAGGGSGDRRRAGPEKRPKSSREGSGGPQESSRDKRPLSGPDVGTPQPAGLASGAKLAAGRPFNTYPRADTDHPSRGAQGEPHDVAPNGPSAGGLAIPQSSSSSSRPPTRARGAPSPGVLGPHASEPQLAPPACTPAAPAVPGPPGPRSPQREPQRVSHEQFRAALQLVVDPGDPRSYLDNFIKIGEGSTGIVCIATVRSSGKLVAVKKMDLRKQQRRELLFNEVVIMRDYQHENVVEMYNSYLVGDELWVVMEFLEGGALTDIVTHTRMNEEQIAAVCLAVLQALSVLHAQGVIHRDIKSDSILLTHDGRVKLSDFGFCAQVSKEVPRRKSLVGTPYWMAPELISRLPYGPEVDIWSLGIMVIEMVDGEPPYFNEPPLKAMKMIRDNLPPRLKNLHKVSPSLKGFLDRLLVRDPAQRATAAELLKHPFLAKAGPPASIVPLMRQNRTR", "test": "SelectScreen Kinase Profiling: PAK4", "excerpt": "(§1) Table 2 below highlights the selectivity of a representative compound of the invention against a panel of 50 kinases (assessed using the Invitrogen SelectScreen® Kinase Profiling Service)."}, "[2]": {"target": "CSNK2A1 (CK2 alpha 1) (Homo sapiens (Human), UniProt P68400)", "test": "SelectScreen Kinase Profiling: CSNK2A1", "excerpt": "as §1"}, "[3]": {"target": "PIM1 (Homo sapiens (Human), UniProt P11309)", "sequence (P11309 whole entry)": "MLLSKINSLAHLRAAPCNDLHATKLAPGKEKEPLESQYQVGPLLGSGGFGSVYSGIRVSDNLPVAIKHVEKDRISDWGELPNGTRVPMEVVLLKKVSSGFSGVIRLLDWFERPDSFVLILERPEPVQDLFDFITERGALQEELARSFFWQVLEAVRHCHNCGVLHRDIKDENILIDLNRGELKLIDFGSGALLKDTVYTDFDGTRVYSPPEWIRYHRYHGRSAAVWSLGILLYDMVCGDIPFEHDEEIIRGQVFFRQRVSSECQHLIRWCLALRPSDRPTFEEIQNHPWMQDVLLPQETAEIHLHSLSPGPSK", "test": "SelectScreen Kinase Profiling: PIM1", "excerpt": "as §1"}, "[4]": {"target": "FGFR1 (Homo sapiens (Human), UniProt P11362)", "test": "SelectScreen Kinase Profiling: FGFR1", "excerpt": "as §1"}, "[5]": {"target": "GSK3B (GSK3 beta) (Homo sapiens (Human), UniProt P49841)", "test": "SelectScreen Kinase Profiling: GSK3B", "excerpt": "as §1"}, "[6]": {"target": "ROCK1 (Homo sapiens (Human), UniProt Q13464)", "sequence (Q13464 whole entry)": "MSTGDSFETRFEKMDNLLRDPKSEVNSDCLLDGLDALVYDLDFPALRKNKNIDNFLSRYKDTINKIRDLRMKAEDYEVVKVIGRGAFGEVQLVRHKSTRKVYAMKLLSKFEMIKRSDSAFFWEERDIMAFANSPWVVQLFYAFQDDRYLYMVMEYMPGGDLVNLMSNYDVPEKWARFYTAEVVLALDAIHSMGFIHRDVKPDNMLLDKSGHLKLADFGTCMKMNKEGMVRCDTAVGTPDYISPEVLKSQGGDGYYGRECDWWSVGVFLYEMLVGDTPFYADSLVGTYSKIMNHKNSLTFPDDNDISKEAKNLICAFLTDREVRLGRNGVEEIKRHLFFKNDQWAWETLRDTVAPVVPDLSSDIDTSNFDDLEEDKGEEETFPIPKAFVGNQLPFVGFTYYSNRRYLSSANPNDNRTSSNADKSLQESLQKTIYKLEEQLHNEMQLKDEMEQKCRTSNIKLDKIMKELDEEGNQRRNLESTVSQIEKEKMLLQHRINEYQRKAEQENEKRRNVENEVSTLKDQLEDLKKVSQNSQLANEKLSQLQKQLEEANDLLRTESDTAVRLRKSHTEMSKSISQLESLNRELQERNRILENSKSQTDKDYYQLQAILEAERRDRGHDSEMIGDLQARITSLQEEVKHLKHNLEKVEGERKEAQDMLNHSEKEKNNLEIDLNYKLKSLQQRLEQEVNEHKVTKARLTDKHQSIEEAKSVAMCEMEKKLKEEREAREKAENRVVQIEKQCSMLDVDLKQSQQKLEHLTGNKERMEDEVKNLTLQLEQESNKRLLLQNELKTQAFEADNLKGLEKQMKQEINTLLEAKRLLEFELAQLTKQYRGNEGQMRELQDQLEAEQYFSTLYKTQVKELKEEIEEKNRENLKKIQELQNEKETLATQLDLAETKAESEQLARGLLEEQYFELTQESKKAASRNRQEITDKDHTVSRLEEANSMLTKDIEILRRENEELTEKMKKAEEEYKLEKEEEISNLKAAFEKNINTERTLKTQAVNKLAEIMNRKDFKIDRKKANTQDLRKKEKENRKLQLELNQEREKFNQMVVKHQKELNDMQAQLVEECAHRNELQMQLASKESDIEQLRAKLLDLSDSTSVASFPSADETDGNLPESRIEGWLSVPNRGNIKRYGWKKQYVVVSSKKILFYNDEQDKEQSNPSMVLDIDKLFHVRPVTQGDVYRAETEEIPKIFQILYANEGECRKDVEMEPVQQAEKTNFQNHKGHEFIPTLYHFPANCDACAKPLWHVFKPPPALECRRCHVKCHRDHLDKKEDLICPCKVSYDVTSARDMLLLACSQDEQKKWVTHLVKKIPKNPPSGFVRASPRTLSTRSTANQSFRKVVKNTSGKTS", "test": "SelectScreen Kinase Profiling: ROCK1", "excerpt": "as §1"}, "[7]": {"target": "MARK2 (Homo sapiens (Human), UniProt Q7KZI7)", "test": "SelectScreen Kinase Profiling: MARK2", "excerpt": "as §1"}, "[8]": {"target": "BTK (Homo sapiens (Human), UniProt Q06187)", "test": "SelectScreen Kinase Profiling: BTK", "excerpt": "as §1"}, "[9]": {"target": "ABL1 (Homo sapiens (Human), UniProt P00519)", "test": "SelectScreen Kinase Profiling: ABL1", "excerpt": "as §1"}, "[10]": {"target": "ACVR1B (ALK4) (Homo sapiens (Human), UniProt P36896)", "test": "SelectScreen Kinase Profiling: ACVR1B", "excerpt": "as §1"}, "[11]": {"target": "EPHA2 (Homo sapiens (Human), UniProt P29317)", "test": "SelectScreen Kinase Profiling: EPHA2", "excerpt": "as §1"}, "[12]": {"target": "MAP2K1 (MEK1) (Homo sapiens (Human), UniProt Q02750)", "test": "SelectScreen Kinase Profiling: MAP2K1", "excerpt": "as §1"}, "[13]": {"target": "RPS6KB1 (p70S6K) (Homo sapiens (Human), UniProt P23443)", "sequence (P23443 whole entry)": "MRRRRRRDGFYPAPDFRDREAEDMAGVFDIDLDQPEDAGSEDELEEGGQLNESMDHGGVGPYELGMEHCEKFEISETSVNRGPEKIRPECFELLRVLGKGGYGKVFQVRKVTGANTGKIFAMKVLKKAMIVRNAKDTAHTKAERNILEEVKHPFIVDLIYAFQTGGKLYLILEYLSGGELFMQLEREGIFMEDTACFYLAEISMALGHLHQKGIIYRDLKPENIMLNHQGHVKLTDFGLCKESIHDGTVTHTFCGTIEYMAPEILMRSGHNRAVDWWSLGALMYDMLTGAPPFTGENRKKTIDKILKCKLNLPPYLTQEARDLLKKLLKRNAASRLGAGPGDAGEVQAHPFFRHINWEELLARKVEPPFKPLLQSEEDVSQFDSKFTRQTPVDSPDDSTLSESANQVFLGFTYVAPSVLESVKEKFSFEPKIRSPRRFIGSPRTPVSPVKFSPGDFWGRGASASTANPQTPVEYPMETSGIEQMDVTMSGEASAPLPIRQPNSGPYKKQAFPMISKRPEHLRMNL", "test": "SelectScreen Kinase Profiling: RPS6KB1", "excerpt": "as §1"}, "[14]": {"target": "PLK1 (Homo sapiens (Human), UniProt P53350)", "sequence (P53350 whole entry)": "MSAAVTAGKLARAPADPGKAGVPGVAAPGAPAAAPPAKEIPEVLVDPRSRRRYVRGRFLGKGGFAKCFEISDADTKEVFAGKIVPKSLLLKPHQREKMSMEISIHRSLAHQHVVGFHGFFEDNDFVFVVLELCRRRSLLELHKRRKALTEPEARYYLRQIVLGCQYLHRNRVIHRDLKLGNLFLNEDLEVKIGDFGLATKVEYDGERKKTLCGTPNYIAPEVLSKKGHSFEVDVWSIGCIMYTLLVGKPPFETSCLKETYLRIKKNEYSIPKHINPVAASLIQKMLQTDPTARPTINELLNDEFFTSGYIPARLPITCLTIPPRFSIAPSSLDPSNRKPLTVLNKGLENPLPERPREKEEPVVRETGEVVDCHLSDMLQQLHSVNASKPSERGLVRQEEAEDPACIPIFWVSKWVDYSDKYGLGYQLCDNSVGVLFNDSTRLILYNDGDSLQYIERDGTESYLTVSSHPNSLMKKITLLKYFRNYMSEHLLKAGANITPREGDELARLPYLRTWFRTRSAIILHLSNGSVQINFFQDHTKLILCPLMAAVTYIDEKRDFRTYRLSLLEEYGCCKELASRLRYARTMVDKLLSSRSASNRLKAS", "test": "SelectScreen Kinase Profiling: PLK1", "excerpt": "as §1"}, "[15]": {"target": "INSR (Homo sapiens (Human), UniProt P06213)", "test": "SelectScreen Kinase Profiling: INSR", "excerpt": "as §1"}, "[16]": {"target": "ERBB2 (HER2) (Homo sapiens (Human), UniProt P04626)", "sequence (P04626 23-1255)": "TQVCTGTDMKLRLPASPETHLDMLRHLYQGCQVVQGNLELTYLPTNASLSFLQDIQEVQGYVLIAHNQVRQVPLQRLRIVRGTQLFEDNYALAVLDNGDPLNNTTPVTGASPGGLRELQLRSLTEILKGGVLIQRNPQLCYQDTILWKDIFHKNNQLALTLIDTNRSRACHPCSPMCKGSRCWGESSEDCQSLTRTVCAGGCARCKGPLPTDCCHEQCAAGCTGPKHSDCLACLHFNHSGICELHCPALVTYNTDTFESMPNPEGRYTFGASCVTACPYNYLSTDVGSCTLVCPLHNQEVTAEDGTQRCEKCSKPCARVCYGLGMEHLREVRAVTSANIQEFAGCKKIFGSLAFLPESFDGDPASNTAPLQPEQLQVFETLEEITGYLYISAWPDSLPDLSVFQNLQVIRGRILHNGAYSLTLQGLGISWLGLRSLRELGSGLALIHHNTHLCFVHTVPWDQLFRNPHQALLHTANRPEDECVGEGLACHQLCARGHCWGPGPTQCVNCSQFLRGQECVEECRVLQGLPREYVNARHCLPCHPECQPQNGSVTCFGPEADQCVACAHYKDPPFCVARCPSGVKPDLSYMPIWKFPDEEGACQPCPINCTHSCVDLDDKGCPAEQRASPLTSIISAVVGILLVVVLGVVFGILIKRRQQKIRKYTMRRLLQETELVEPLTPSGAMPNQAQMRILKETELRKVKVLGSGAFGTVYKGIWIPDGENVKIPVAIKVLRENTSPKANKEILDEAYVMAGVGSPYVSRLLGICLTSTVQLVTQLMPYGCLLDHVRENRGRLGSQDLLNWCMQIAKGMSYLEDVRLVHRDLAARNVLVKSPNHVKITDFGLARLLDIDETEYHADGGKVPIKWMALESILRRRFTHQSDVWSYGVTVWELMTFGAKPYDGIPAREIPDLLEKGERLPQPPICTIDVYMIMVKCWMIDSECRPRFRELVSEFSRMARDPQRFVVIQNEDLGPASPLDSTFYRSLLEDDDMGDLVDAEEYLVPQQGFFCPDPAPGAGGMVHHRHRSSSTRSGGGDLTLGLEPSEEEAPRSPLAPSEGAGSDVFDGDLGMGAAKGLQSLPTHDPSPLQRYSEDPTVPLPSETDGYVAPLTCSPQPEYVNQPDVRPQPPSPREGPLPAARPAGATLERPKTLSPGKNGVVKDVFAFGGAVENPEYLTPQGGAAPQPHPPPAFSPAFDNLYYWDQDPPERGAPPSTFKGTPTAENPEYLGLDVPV", "test": "SelectScreen Kinase Profiling: ERBB2", "excerpt": "as §1"}, "[17]": {"target": "PRKACA (PKA) (Homo sapiens (Human), UniProt P17612)", "test": "SelectScreen Kinase Profiling: PRKACA", "excerpt": "as §1"}, "[18]": {"target": "DYRK3 (Homo sapiens (Human), UniProt O43781)", "test": "SelectScreen Kinase Profiling: DYRK3", "excerpt": "as §1"}, "[19]": {"target": "CSNK1G2 (CK1 gamma 2) (Homo sapiens (Human), UniProt P78368)", "sequence (P78368 whole entry)": "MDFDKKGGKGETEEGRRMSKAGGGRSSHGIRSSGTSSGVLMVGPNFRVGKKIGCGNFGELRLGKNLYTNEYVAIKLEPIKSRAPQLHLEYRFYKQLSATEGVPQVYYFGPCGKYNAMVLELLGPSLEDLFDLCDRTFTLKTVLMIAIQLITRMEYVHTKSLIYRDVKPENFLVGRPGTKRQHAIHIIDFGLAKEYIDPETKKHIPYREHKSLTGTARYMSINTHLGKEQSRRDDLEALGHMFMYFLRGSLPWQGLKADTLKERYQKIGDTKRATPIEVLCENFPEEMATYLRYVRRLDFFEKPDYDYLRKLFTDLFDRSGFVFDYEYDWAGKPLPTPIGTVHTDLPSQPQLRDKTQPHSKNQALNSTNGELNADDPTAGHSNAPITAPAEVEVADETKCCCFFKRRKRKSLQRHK", "test": "SelectScreen Kinase Profiling: CSNK1G2", "excerpt": "as §1"}, "[20]": {"target": "KDR (VEGFR2) (Homo sapiens (Human), UniProt P35968)", "test": "SelectScreen Kinase Profiling: KDR", "excerpt": "as §1"}, "[21]": {"target": "MAPK1 (ERK2) (Homo sapiens (Human), UniProt P28482)", "test": "SelectScreen Kinase Profiling: MAPK1", "excerpt": "as §1"}, "[22]": {"target": "JAK3 (Homo sapiens (Human), UniProt P52333)", "test": "SelectScreen Kinase Profiling: JAK3", "excerpt": "as §1"}, "[23]": {"target": "NEK1 (Homo sapiens (Human), UniProt Q96PY6)", "test": "SelectScreen Kinase Profiling: NEK1", "excerpt": "as §1"}},
  "data": [
    {"smiles": "CCN(CC)CCOc1ccc(Nc2ncc3cc(-c4c(Cl)cccc4Cl)c(=O)n(C)c3n2)cc1", "note": "[Compound 1 BMCL, 2005, p1931, reference compound]", "values": [
      {"measurement": "Inhibition PAK4", "setting": "[1]", "value": "− (Inhibition <75% @ 300-350 nM)"},
      {"measurement": "Inhibition CSNK2A1 (CK2 alpha 1)", "setting": "[2]", "value": "− (Inhibition <75% @ 300-350 nM)"},
      {"measurement": "Inhibition PIM1", "setting": "[3]", "value": "− (Inhibition <75% @ 300-350 nM)"},
      {"measurement": "Inhibition FGFR1", "setting": "[4]", "value": "+ (Inhibition >75% at 300-350 nM)"},
      {"measurement": "Inhibition GSK3B (GSK3 beta)", "setting": "[5]", "value": "− (Inhibition <75% @ 300-350 nM)"},
      {"measurement": "Inhibition ROCK1", "setting": "[6]", "value": "− (Inhibition <75% @ 300-350 nM)"},
      {"measurement": "Inhibition MARK2", "setting": "[7]", "value": "+ (Inhibition >75% at 300-350 nM)"},
      {"measurement": "Inhibition BTK", "setting": "[8]", "value": "+ (Inhibition >75% at 300-350 nM)"},
      {"measurement": "Inhibition ABL1", "setting": "[9]", "value": "+ (Inhibition >75% at 300-350 nM)"},
      {"measurement": "Inhibition ACVR1B (ALK4)", "setting": "[10]", "value": "+ (Inhibition >75% at 300-350 nM)"},
      {"measurement": "Inhibition EPHA2", "setting": "[11]", "value": "+ (Inhibition >75% at 300-350 nM)"},
      {"measurement": "Inhibition MAP2K1 (MEK1)", "setting": "[12]", "value": "− (Inhibition <75% @ 300-350 nM)"},
      {"measurement": "Inhibition RPS6KB1 (p70S6K)", "setting": "[13]", "value": "− (Inhibition <75% @ 300-350 nM)"},
      {"measurement": "Inhibition PLK1", "setting": "[14]", "value": "− (Inhibition <75% @ 300-350 nM)"},
      {"measurement": "Inhibition INSR", "setting": "[15]", "value": "− (Inhibition <75% @ 300-350 nM)"},
      {"measurement": "Inhibition ERBB2 (HER2)", "setting": "[16]", "value": "− (Inhibition <75% @ 300-350 nM)"},
      {"measurement": "Inhibition PRKACA (PKA)", "setting": "[17]", "value": "− (Inhibition <75% @ 300-350 nM)"},
      {"measurement": "Inhibition DYRK3", "setting": "[18]", "value": "− (Inhibition <75% @ 300-350 nM)"},
      {"measurement": "Inhibition CSNK1G2 (CK1 gamma 2)", "setting": "[19]", "value": "− (Inhibition <75% @ 300-350 nM)"},
      {"measurement": "Inhibition KDR (VEGFR2)", "setting": "[20]", "value": "+ (Inhibition >75% at 300-350 nM)"},
      {"measurement": "Inhibition MAPK1 (ERK2)", "setting": "[21]", "value": "− (Inhibition <75% @ 300-350 nM)"},
      {"measurement": "Inhibition JAK3", "setting": "[22]", "value": "+ (Inhibition >75% at 300-350 nM)"},
      {"measurement": "Inhibition NEK1", "setting": "[23]", "value": "− (Inhibition <75% @ 300-350 nM)"}
    ]}
  ]
}
